Data published in patent US9545120B2, “Method of lowering glycemic index of foods” (BASF SE, priority 2002, dated 2017).
Like-named read-outs stand apart in the source and are kept apart here.

Tests used:
[1] = target: T1, Alpha-glucosidase Type 1 from bakers yeast (Saccharomyces cerevisiae, UniProt P53341); assay: Alpha-glucosidase assay; type: biochemical; conditions: for remaining activity at 15.6 µg/mL / remaining activity at 7.8 µg/mL / remaining activity at 31.3 µg/mL / remaining activity at 62.5 µg/mL / remaining activity at 125 µg/mL / remaining activity at 250 µg/mL / remaining activity at 500 µg/mL: read-out: alpha-glucosidase % control; for inhibition at 15.6 µg/mL / inhibition at 7.8 µg/mL / inhibition at 31.3 µg/mL / inhibition at 62.5 µg/mL / inhibition at 125 µg/mL / inhibition at 250 µg/mL / inhibition at 500 µg/mL: read-out: alpha-glucosidase % inhibition; for inhibition at 1600 µM: read-out: % inhibition of alpha-glucosidase at flavonoid concentration 1.6 mM (454 μg/mL)
T1 construct: purchased Sigma
T1 sequence (P53341 whole entry): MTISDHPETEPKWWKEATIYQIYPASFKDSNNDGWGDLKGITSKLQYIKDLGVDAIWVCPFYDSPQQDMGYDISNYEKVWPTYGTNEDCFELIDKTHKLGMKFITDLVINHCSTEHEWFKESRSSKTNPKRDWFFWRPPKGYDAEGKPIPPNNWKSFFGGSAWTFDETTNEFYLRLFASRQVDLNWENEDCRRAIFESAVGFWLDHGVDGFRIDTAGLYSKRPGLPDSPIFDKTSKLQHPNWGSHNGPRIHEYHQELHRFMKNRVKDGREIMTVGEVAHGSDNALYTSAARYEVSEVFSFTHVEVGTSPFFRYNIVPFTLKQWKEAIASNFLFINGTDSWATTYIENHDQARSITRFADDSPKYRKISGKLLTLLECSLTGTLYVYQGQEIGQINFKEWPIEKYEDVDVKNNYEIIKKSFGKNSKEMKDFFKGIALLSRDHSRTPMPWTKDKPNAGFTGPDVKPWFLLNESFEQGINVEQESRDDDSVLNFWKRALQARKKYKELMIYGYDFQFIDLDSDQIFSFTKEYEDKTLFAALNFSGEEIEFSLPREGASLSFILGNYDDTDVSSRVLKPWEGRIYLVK
Procedure: Alpha-glucosidase Type 1 from bakers yeast, substrate (p-nitrophenyl-alpha-D-glucopyranoside) and a control inhibitor, castanospermine were purchased from Sigma. For the assay, enzyme dissolved in 50 mM acetate buffer, pH 4.5 was incubated for 30 min, at 37° C. in the presence of substrate and in the presence vs. absence of inhibitors (flavonoids or castanospermine at various concentrations). The reaction was carried out in 50 mM acetate buffer, pH 4.5. Final concentration of alpha glucosidase was 0.2 U/ml; final concentration of the substrate was 2 mM. Flavonoids concentrations ranged from 7.8 to 500 μg/ml and castanospermine was used at final concentration 1 μg/ml. The reaction was stopped by addition of 0.2 M Na2CO3 and absorbance was measured at 405 nm. Background absorbance (without enzyme) was subtracted for every flavonoid concentration used. The inhibitory activity was expressed as 100 minus relative absorbance difference between tested samples and controls.

[2] = target: T2, Alpha-amylase from porcine pancreas (Sus scrofa, UniProt P00690); assay: Alpha-amylase assay; type: biochemical; conditions: for remaining activity at 11.7 µg/mL / remaining activity at 23.4 µg/mL / remaining activity at 46.9 µg/mL / remaining activity at 93.8 µg/mL / remaining activity at 187.5 µg/mL / remaining activity at 375 µg/mL / remaining activity at 750 µg/mL: read-out: alpha-amylase % control; for inhibition at 11.7 µg/mL / inhibition at 23.4 µg/mL / inhibition at 46.9 µg/mL / inhibition at 93.8 µg/mL / inhibition at 187.5 µg/mL / inhibition at 375 µg/mL / inhibition at 750 µg/mL: read-out: alpha-amylase % inhibition; for inhibition at 1600 µM: read-out: % inhibition of alpha-amylase at flavonoid concentration 1.6 mM (454 μg/mL)
T2 construct: purchased Sigma; host or cells: porcine pancreas
T2 sequence (P00690 16-511): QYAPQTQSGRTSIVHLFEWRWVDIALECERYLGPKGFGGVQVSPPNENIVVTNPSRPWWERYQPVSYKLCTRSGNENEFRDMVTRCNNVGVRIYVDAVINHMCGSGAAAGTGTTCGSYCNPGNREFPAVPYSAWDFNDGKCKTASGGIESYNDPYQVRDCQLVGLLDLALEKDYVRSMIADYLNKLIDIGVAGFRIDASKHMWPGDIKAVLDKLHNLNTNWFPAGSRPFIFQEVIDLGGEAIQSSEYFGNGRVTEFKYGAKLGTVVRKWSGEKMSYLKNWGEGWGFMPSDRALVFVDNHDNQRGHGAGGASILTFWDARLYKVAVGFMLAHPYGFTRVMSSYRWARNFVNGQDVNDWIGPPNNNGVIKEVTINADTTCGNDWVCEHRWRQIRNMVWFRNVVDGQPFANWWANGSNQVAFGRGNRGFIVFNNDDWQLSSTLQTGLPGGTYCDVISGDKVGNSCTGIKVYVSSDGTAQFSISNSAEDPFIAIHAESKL
Procedure: Alpha-amylase from porcine pancreas, alpha-glucosidase, glucoamylase and substrate (p-nitrophenyl-alpha-maltopentaoside) were purchased from Sigma. In the reaction, alpha-amylase (endo-type enzyme) hydrolysed the substrate into shorter chain glucosides and the auxiliary enzymes (exo-type enzymes) released the chromophore (p-nitrophenol) from the amylase-hydrolyzed malto-polysaccharides. For the assay, alpha-amylase (7.5 U/ml) was added to a substrate solution containing 1 mM p-nitrophenyl-alpha-maltopentaoside, 15 U/ml of alpha-glucosidase and 25 U/ml of glucoamylase in 50 mM HEPES buffer (pH 7.3) containing 3 mM CaCl2 and 40 mM NaCl. The reaction was carried out for 15 min at 37° C. in the presence vs. absence of flavonoids at concentrations ranged from 11.7 to 750 μg/ml. At the end of the incubation, 0.2 M borate, pH 9.8 was added to inactivate the enzymes and liberated p-nitrophenol was measured spectrophotometrically at 405 nm. The relative activity of alpha-amylase was calculated by subtracting reaction blanks containing the substrate, the two axillary enzymes and flavonoids at the same concentrations. The inhibitory activity was expressed as 100 minus relative absorbance difference between tested samples and controls.

Structure (SMILES)	IC50 [1]	remaining activity at 15.6 µg/mL ([1]; flavonoid conc. 15.6 μg/mL)	inhibition at 15.6 µg/mL ([1]; flavonoid conc. 15.6 μg/mL)	inhibition at 1600 µM [1]	remaining activity at 7.8 µg/mL [1]	remaining activity at 31.3 µg/mL [1]	remaining activity at 62.5 µg/mL [1]	remaining activity at 125 µg/mL [1]	remaining activity at 250 µg/mL [1]	remaining activity at 500 µg/mL [1]	inhibition at 7.8 µg/mL [1]	inhibition at 31.3 µg/mL [1]	inhibition at 62.5 µg/mL [1]	inhibition at 125 µg/mL [1]	inhibition at 250 µg/mL [1]	inhibition at 500 µg/mL [1]	remaining activity at 11.7 µg/mL ([2]; flavonoid conc. 11.7 μg/ml)	inhibition at 11.7 µg/mL ([2]; flavonoid conc. 11.7 μg/ml)	remaining activity at 23.4 µg/mL ([2]; flavonoid conc. 23.4 μg/ml)	inhibition at 1600 µM [2]	further results
O=c1cc(-c2ccc(O)cc2)oc2cc(O)cc(O)c12 [Apigenin, apigenin]	220 µM	74.3%	25.7%	100%	73.5%	68.4%	50.4%	29.5%	0%	0%	26.5%	31.6%	49.6%	70.5%	100%	100%	81%	19%	0%	100%	inhibition at 23.4 µg/mL ([2]; flavonoid conc. 23.4 μg/ml): 100%; remaining activity at 46.9 µg/mL ([2]; flavonoid conc. 46.9 μg/ml): 0%; inhibition at 46.9 µg/mL ([2]; flavonoid conc. 46.9 μg/ml): 100%; remaining activity at 93.8 µg/mL ([2]; flavonoid conc. 93.8 μg/ml): 0%; inhibition at 93.8 µg/mL ([2]; flavonoid conc. 93.8 μg/ml): 100%; remaining activity at 187.5 µg/mL ([2]; flavonoid conc. 187.5 μg/ml): 0%; inhibition at 187.5 µg/mL ([2]; flavonoid conc. 187.5 μg/ml): 100%; remaining activity at 375 µg/mL ([2]; flavonoid conc. 375.0 μg/ml): 0%; inhibition at 375 µg/mL ([2]; flavonoid conc. 375.0 μg/ml): 100%; remaining activity at 750 µg/mL ([2]; flavonoid conc. 750.0 μg/ml): 0%; inhibition at 750 µg/mL ([2]; flavonoid conc. 750.0 μg/ml): 100%
O=c1cc(-c2ccc(O)c(O)c2)oc2cc(O)cc(O)c12 [Luteolin, luteolin]		60.2%	39.8%	96%	81.4%	65.8%	45.7%	17.9%	19.1%	0%	18.6%	34.2%	54.3%	82.1%	80.9%	100%	0%	100%	0%	100%	IC50 ([1]; read-out: IC50 concentration, alpha-glucosidase (converted)): 180 µM; inhibition at 23.4 µg/mL ([2]; flavonoid conc. 23.4 μg/ml): 100%; remaining activity at 46.9 µg/mL ([2]; flavonoid conc. 46.9 μg/ml): 0%; inhibition at 46.9 µg/mL ([2]; flavonoid conc. 46.9 μg/ml): 100%; remaining activity at 93.8 µg/mL ([2]; flavonoid conc. 93.8 μg/ml): 0%; inhibition at 93.8 µg/mL ([2]; flavonoid conc. 93.8 μg/ml): 100%; remaining activity at 187.5 µg/mL ([2]; flavonoid conc. 187.5 μg/ml): 0%; inhibition at 187.5 µg/mL ([2]; flavonoid conc. 187.5 μg/ml): 100%; remaining activity at 375 µg/mL ([2]; flavonoid conc. 375.0 μg/ml): 0%; inhibition at 375 µg/mL ([2]; flavonoid conc. 375.0 μg/ml): 100%; remaining activity at 750 µg/mL ([2]; flavonoid conc. 750.0 μg/ml): 0%; inhibition at 750 µg/mL ([2]; flavonoid conc. 750.0 μg/ml): 100%; inhibition of alpha-amylase at the lowest concentration tested ([2]; lowest concentration tested (11.7 μg/ml)): inhibiting the enzyme completely; IC50 ([2]; read-out: IC50 concentration, alpha-amylase (converted)): 20.3 µM
COc1cc(-c2cc(=O)c3c(O)cc(O)cc3o2)cc(OC)c1O [Tricin, tricin]	36.3 µM			100%	97.7%	15.6%	6.4%	0%	0%	0%	0.3%	84.4%	93.6%	100%	100%	100%				100%	remaining activity at 15.6 µg/mL [1]: 26.4%; inhibition at 15.6 µg/mL [1]: 73.6%; IC50 [2]: 30 µM; remaining activity at 11.7 µg/mL [2]: 40.9%; remaining activity at 23.4 µg/mL [2]: 18.2%; remaining activity at 46.9 µg/mL [2]: 0%; remaining activity at 93.8 µg/mL [2]: 0%; remaining activity at 187.5 µg/mL [2]: 0%; remaining activity at 375 µg/mL [2]: 0%; remaining activity at 750 µg/mL [2]: 0%; inhibition at 11.7 µg/mL [2]: 59.1%; inhibition at 23.4 µg/mL [2]: 81.8%; inhibition at 46.9 µg/mL [2]: 100%; inhibition at 93.8 µg/mL [2]: 100%; inhibition at 187.5 µg/mL [2]: 100%; inhibition at 375 µg/mL [2]: 100%; inhibition at 750 µg/mL [2]: 100%
O[C@H]1[C@H](O)[C@@H](O)CN2CC[C@H](O)[C@H]12 [castanospermine, reference compound]																					activity of alpha-glucosidase reduced by ([1]; 1 μg/ml, control inhibitor): 32%
